The record followed here is patent US7968591B2, “1,3-disubstituted 4-methyl-1H-pyrrole-2-carboxamides and their use in medicaments” (Gruenenthal GmbH, priority 2006, dated 2011).

The structures appear in SMILES notation.

The test system of the assay is batrachotoxin (BTX) binding site of the sodium channel. As to the kind of experiment: Affinity for the batrachotoxin (BTX) binding site of the sodium channel. To be noted: rat cerebrocortex synaptosomes, [3H]-Batrachotoxinin A20α benzoate 10 nM.
Regarding `COc1ccc(-c2c(C)cn(Cc3ccc(F)cc3)c2C(=O)NCCc2cccs2)cc1` [Example 35, 1-(4-fluorobenzyl)-3-(4-methoxyphenyl)-4-methyl-1H-pyrrole-2-carboxylic acid (2-thiophen-2-ylethyl)-amide], the “BTX (Na+ channel) (% inhibition at 10 μM)” value is 48%.

As to `Cc1cn(Cc2ccc(C(F)(F)F)cc2)c(C(=O)NCCN2CCCC2)c1-c1ccco1` [Example 38, 3-furan-2-yl-4-methyl-1-(4-trifluoromethylbenzyl)-1H-pyrrole-2-carboxylic acid (2-pyrrolidin-1-ylethyl)-amide], the “BTX (Na+ channel) (% inhibition at 10 μM)” value came to 94%.

`COc1ccc(Cn2cc(C)c(-c3ccc(C)cc3)c2C(=O)N(C)CC(=O)OCc2ccccc2)cc1` [Example 39, {[1-(4-methoxybenzyl)-4-methyl-3-p-tolyl-1H-pyrrole-2-carbonyl]-methylamino}-acetic acid benzyl ester]: the “BTX (Na+ channel) (% inhibition at 10 μM)” value was 74%.

Consider `COc1ccc(Cn2cc(C)c(-c3ccco3)c2C(=O)NCCC2CCCN2C)cc1` (stereo not drawn) [Example 40, 3-furan-2-yl-1-(4-methoxybenzyl)-4-methyl-1H-pyrrole-2-carboxylic acid [2-(1-methylpyrrolidin-2-yl)-ethyl]-amide], for which the “BTX (Na+ channel) (% inhibition at 10 μM)” value is 81%.

For the compound `CCOc1ccc(Br)cc1CN1CCN(C(=O)c2c(-c3ccccc3)c(C)cn2C)CC1` [Example 41, [4-(5-bromo-2-ethoxybenzyl)-piperazin-1-yl]-(1,4-dimethyl-3-phenyl-1H-pyrrol-2-yl)-methanone], the “BTX (Na+ channel) (% inhibition at 10 μM)” value was 77%.

`COc1ccc(CN2CCN(C(=O)c3c(-c4ccco4)c(C)cn3Cc3ccccc3)CC2)cc1F` [Example 42, (1-benzyl-3-furan-2-yl-4-methyl-1H-pyrrol-2-yl)-[4-(3-fluoro-4-methoxybenzyl)-piperazin-1-yl]-methanone]: the “BTX (Na+ channel) (% inhibition at 10 μM)” value was 88%.

With `CCn1cc(C)c(-c2ccc(Cl)cc2)c1C(=O)NCCC(=O)OC(C)(C)C` [Example 43, 3-{[3-(4-chlorophenyl)-1-ethyl-4-methyl-1H-pyrrole-2-carbonyl]-amino}-propionic acid tert.-butyl ester], the “BTX (Na+ channel) (% inhibition at 10 μM)” value worked out at 31%.

In the case of `COc1cccc(CNC(=O)c2c(-c3ccccc3)c(C)cn2Cc2ccccc2)c1` [Example 44, 1-benzyl-4-methyl-3-phenyl-1H-pyrrole-2-carboxylic acid 3-methoxybenzylamide], the “BTX (Na+ channel) (% inhibition at 10 μM)” value was determined as 47%.

Turning to `CCOc1ccc(Br)cc1CN1CCN(C(=O)c2c(-c3ccco3)c(C)cn2Cc2ccccc2)CC1` [Example 45, (1-benzyl-3-furan-2-yl-4-methyl-1H-pyrrol-2-yl)-[4-(5-bromo-2-ethoxybenzyl)-piperazin-1-yl]-methanone], the “BTX (Na+ channel) (% inhibition at 10 μM)” value turned out to be 89%.

Regarding `Cc1ccccc1N1CCN(C(=O)c2c(-c3ccc(Cl)cc3)c(C)cn2C)CC1` [Example 46, [3-(4-chlorophenyl)-1,4-dimethyl-1H-pyrrol-2-yl]-(4-o-tolylpiperazin-1-yl)-methanone], the “BTX (Na+ channel) (% inhibition at 10 μM)” value was 55%.

Regarding `CCOc1ccc(CCNC(=O)c2c(-c3ccc(OC)cc3)c(C)cn2Cc2ccc(F)cc2)cc1` [Example 47, 1-(4-fluorobenzyl)-3-(4-methoxyphenyl)-4-methyl-1H-pyrrole-2-carboxylic acid [2-(4-ethoxyphenyl)-ethyl]-amide], the “BTX (Na+ channel) (% inhibition at 10 μM)” value was found to be 55%.

On to `Cc1ccc(-c2c(C)cn(Cc3c(Cl)cccc3Cl)c2C(=O)N2CCC(O)CC2)cc1` [Example 48, [1-(2,6-dichlorobenzyl)-4-methyl-3-p-tolyl-1H-pyrrol-2-yl]-(4-hydroxypiperidin-1-yl)-methanone], for which the “BTX (Na+ channel) (% inhibition at 10 μM)” value is 36%.

Turning to `COc1cc(OC)c(CN2CCN(C(=O)c3c(-c4ccc(C)cc4)c(C)cn3C)CC2)c(OC)c1` [Example 49, (1,4-dimethyl-3-p-tolyl-1H-pyrrol-2-yl)-[4-(2,4,6-trimethoxybenzyl)-piperazin-1-yl]-methanone], the “BTX (Na+ channel) (% inhibition at 10 μM)” value was 89%.

On to `Cc1cn(Cc2ccc(F)cc2)c(C(=O)NCCN2CCOCC2)c1-c1ccco1` [Example 50, 1-(4-fluorobenzyl)-3-furan-2-yl-4-methyl-1H-pyrrole-2-carboxylic acid (2-morpholin-4-ylethyl)-amide], for which the “BTX (Na+ channel) (% inhibition at 10 μM)” value turned out to be 77%.

Consider `Cc1cn(Cc2ccccc2)c(C(=O)NCCc2ccc(F)cc2)c1-c1ccc(Cl)cc1` [Example 51, 1-benzyl-3-(4-chlorophenyl)-4-methyl-1H-pyrrole-2-carboxylic acid [2-(4-fluorophenyl)-ethyl]-amide], for which the “BTX (Na+ channel) (% inhibition at 10 μM)” value worked out at 43%.

Take `COc1ccc(-c2c(C)cn(C)c2C(=O)N2CCN(c3cc(C)ccc3C)CC2)cc1` [Example 52, [4-(2,5-dimethylphenyl)-piperazin-1-yl]-[3-(4-methoxyphenyl)-1,4-dimethyl-1H-pyrrol-2-yl]-methanone]: the “BTX (Na+ channel) (% inhibition at 10 μM)” value is recorded as 76%.

Take `COc1ccc(-c2c(C)cn(C)c2C(=O)NCCCn2ccnc2)cc1` [Example 53, 3-(4-methoxyphenyl)-1,4-dimethyl-1H-pyrrole-2-carboxylic acid (3-imidazol-1-ylpropyl)-amide]: the “BTX (Na+ channel) (% inhibition at 10 μM)” value is 44%.

`COc1ccc(-c2c(C)cn(Cc3ccc(F)cc3)c2C(=O)NCCc2cccc(C(F)(F)F)c2)cc1` [Example 54, 1-(4-fluorobenzyl)-3-(4-methoxyphenyl)-4-methyl-1H-pyrrole-2-carboxylic acid [2-(3-trifluoromethylphenyl)-ethyl]-amide]: the “BTX (Na+ channel) (% inhibition at 10 μM)” value is listed as 42%.

As to `Cc1cnc(C(=O)N2CCN(C(=O)c3c(-c4ccc(Cl)cc4)c(C)cn3Cc3ccccc3F)CC2)cn1` [Example 55, [3-(4-chlorophenyl)-1-(2-fluorobenzyl)-4-methyl-1H-pyrrol-2-yl]-[4-(5-methylpyrazin-2-carbonyl)-piperazin-1-yl]-methanone], the “BTX (Na+ channel) (% inhibition at 10 μM)” value came to 44%.

For `Cc1cn(C)c(C(=O)N2CCN(c3ccncc3)CC2)c1-c1ccc(Cl)cc1` [Example 57, [3-(4-chlorophenyl)-1,4-dimethyl-1H-pyrrol-2-yl]-(4-pyridin-4-ylpiperazin-1-yl)-methanone], the “BTX (Na+ channel) (% inhibition at 10 μM)” value worked out at 76%.

As to `Cc1cn(Cc2ccccc2F)c(C(=O)NCCCn2ccnc2)c1-c1ccc(Cl)cc1` [Example 58, 3-(4-chlorophenyl)-1-(2-fluorobenzyl)-4-methyl-1H-pyrrole-2-carboxylic acid (3-imidazol-1-ylpropyl)-amide], the “BTX (Na+ channel) (% inhibition at 10 μM)” value worked out at 93%.

As for `COc1ccc(CN2CCN(C(=O)c3c(-c4ccccc4)c(C)cn3C)CC2)cc1F` [Example 59, (1,4-dimethyl-3-phenyl-1H-pyrrol-2-yl)-[4-(3-fluoro-4-methoxybenzyl)-piperazin-1-yl]-methanone], the “BTX (Na+ channel) (% inhibition at 10 μM)” value was determined as 75%.

As for `Cc1cn(C)c(C(=O)N2CCN(C3CCCCCC3)CC2)c1-c1ccco1` [Example 61, (4-cycloheptylpiperazin-1-yl)-(3-furan-2-yl-1,4-dimethyl-1H-pyrrol-2-yl)-methanone], the “BTX (Na+ channel) (% inhibition at 10 μM)” value is recorded as 64%.

Consider `COc1ccc(OCCNC(=O)c2c(-c3ccccc3)c(C)cn2Cc2ccccc2)cc1` [Example 62, 1-benzyl-4-methyl-3-phenyl-1H-pyrrole-2-carboxylic acid [2-(4-methoxyphenoxy)-ethyl]-amide], for which the “BTX (Na+ channel) (% inhibition at 10 μM)” value is given as 50%.

For the compound `Cc1cn(Cc2ccc(F)cc2)c(C(=O)NCCCN(C)C)c1-c1ccco1` [Example 63, 1-(4-fluorobenzyl)-3-furan-2-yl-4-methyl-1H-pyrrole-2-carboxylic acid (3-dimethylamino-propyl)-amide], the “BTX (Na+ channel) (% inhibition at 10 μM)” value worked out at 75%.

For `COc1ccc(-c2c(C)cn(Cc3ccc(F)cc3)c2C(=O)N2CCCC2CN2CCCC2)cc1` (stereo not drawn) [Example 64, [1-(4-fluorobenzyl)-3-(4-methoxyphenyl)-4-methyl-1H-pyrrol-2-yl]-(2-pyrrolidin-1-ylmethylpyrrolidin-1-yl)-methanone], the “BTX (Na+ channel) (% inhibition at 10 μM)” value was determined as 96%.

On to `CCN(CC)CCCNC(=O)c1c(-c2ccc(Cl)cc2)c(C)cn1CC(C)C` [Example 65, 3-(4-chlorophenyl)-1-isobutyl-4-methyl-1H-pyrrole-2-carboxylic acid (3-diethylamino-propyl)-amide], for which the “BTX (Na+ channel) (% inhibition at 10 μM)” value turned out to be 88%.

With `COc1ccc(F)c(CN2CCN(C(=O)c3c(-c4ccc(Cl)cc4)c(C)cn3C)CC2)c1` [Example 66, [3-(4-chlorophenyl)-1,4-dimethyl-1H-pyrrol-2-yl]-[4-(2-fluoro-5-methoxybenzyl)-piperazin-1-yl]-methanone], the “BTX (Na+ channel) (% inhibition at 10 μM)” value is given as 73%.

For `CCCCn1cc(C)c(-c2ccc(C)cc2)c1C(=O)N1CCN(Cc2cc(OC)ccc2OC)CC1` [Example 68, (1-butyl-4-methyl-3-p-tolyl-1H-pyrrol-2-yl)-[4-(2,5-dimethoxybenzyl)-piperazin-1-yl]-methanone], the “BTX (Na+ channel) (% inhibition at 10 μM)” value worked out at 84%.

For `CCN(CC)CCN1CCN(C(=O)c2c(-c3ccc(C)cc3)c(C)cn2Cc2ccc(C)cc2)CC1` [Example 69, [4-(2-diethylamino-ethyl)-piperazin-1-yl]-[4-methyl-1-(4-methylbenzyl)-3-p-tolyl-1H-pyrrol-2-yl]-methanone], the “BTX (Na+ channel) (% inhibition at 10 μM)” value is 91%.

With `COc1ccc(-c2c(C)cn(C)c2C(=O)N2CCN(c3cccc(Cl)c3)CC2)cc1` [Example 70, [4-(3-chlorophenyl)-piperazin-1-yl]-[3-(4-methoxyphenyl)-1,4-dimethyl-1H-pyrrol-2-yl]-methanone], the “BTX (Na+ channel) (% inhibition at 10 μM)” value came to 59%.

Regarding `Cc1cn(Cc2ccccc2Br)c(C(=O)N2CCN(C(C)C)CC2)c1-c1ccc(Cl)cc1` [Example 71, [1-(2-bromobenzyl)-3-(4-chlorophenyl)-4-methyl-1H-pyrrol-2-yl]-(4-isopropylpiperazin-1-yl)-methanone], the “BTX (Na+ channel) (% inhibition at 10 μM)” value amounted to 83%.

On to `COc1ccc(-c2c(C)cn(Cc3ccc(F)cc3)c2C(=O)N2CCN(CCN(C)C)CC2)cc1` [Example 72, [4-(2-dimethylamino-ethyl)-piperazin-1-yl]-[1-(4-fluorobenzyl)-3-(4-methoxyphenyl)-4-methyl-1H-pyrrol-2-yl]-methanone], for which the “BTX (Na+ channel) (% inhibition at 10 μM)” value was 81%.
